The source of these data is patent publication US11931365B2, “Use of PPAR-delta agonists in the treatment of disease” (Reneo Pharmaceuticals, Inc., priority 2022, dated 2024).

One assay addresses FXR (Homo sapiens, UniProt Q96RI1). Briefly: Nuclear receptor activity.
A further assay concerns the target LXRα (Homo sapiens, UniProt Q13133). Briefly: Nuclear receptor activity.
The next assay relates to human muscle cell lines. Briefly: Fatty acid oxidation in muscle cell lines. The class given is cell-based.
Assay [1] deals with PPARδ regulated genes (CPT1b, PGC-1α). Description: In vivo expression of PPARδ regulated genes in muscle. The following applies: mice muscle.
In assay [2] the test system is Angiopoietin-like 4 (ANGPTL4). Briefly: In vivo expression of PPAR regulated target gene in muscle. The following applies: rat muscle.
A further assay concerns VLCAD. Description: VLCAD enzymatic activity in cultured fibroblasts from FAOD patients with VLCAD deficiency. The following applies: fibroblasts from symptomatic VLCAD deficient patients. The assay is classed as cell-based, human.
Assay [3] deals with healthy male volunteers, leg immobilization. Description: Phase 1 placebo-controlled study in healthy volunteers with single limb immobilization. The class given is in vivo, human. The following applies: 100 mg twice daily for 28 days. On the procedure: In a prior clinical trial in healthy volunteers, Compound I was administered at dose of 100 mg twice daily for 28 days in healthy volunteers during and after a single limb immobilization (see NCT01524406). The study was conducted to evaluate the impact of Compound I on the recovery of muscle atrophy from leg immobilization, and improvements in cross section area (CSA) and muscle strength parameters expected in patients treated with study drug compared to those given placebo.
This phase 1, randomized, parallel group, placebo-controlled study was conducted at 2 centers in the United States. Fifty participants were planned for enrollment, 25 per group; participants could be replaced upon sponsor approval.
Screening was conducted 28 days before study start; eligibility was reviewed again at prespecified times during the study. Ambulatory, non-smoking, healthy male volunteers 30 to 55 years of age with a Body Mass Index (BMI) from 18 to 30 kg/m2 were recruited for the study. Key exclusion criteria included abnormal laboratory values at screening, a recent history of body weight fluctuations, positive urine drug screens, drug dependency or illicit drug use, professional sport participation within 30 days of screening, donation of whole blood within 90 days of dosing, and donation of plasma within 30 days of dosing. Concomitant medications within 14 days of dosing were not allowed unless approved by the sponsor. Those who had enrolled in another clinical trial within 90 days or had previously received Compound II were not allowed to participate.
Participants were randomly assigned 1:1 to receive either Compound II (100 mg BID) or matching placebo for 28 days using a computer generated randomization schedule provided by the sponsor. The principal investigator, study center staff, and participants were blinded to treatment; the protocol was amended so that sponsor personnel were not blinded. This change was made to allow investigation of observations concerning adherence to the protocol, discussed further in the pharmacodynamic results. Compound II and placebo were provided as capsules identical in appearance, taken orally with 240 ml of water prior to meals. Study drug was administered at the study site on Days 1 (PM dose), 6 (AM dose), 13 (PM dose), and 14, 15, 16, 29 (AM doses). At all other times study drug was self-administered just before breakfast and dinner. Dates and times were recorded in a diary, with compliance determined from the diaries and capsule counts. Study drug supplies were packaged according to the randomization codes by a contract research organization. Each dispensed bottle was labeled with the randomization number. Individual capsules were re-dispensed from these bottles by the study site staff, maintaining the blind. The total study duration for each subject was 42 days. Participants stayed overnight from Day 1 and Days 13 to 16.
Standardized meals, beverages and snacks were provided during the domicile periods. On Day 1, participants were leg-immobilized using a knee brace with […] on the left leg to allow driving. Walking crutches were provided to prevent weight bearing on the immobilized leg. An accelerometer was issued at screening and was used to count the number of steps per day. Participants were to walk 4000 to 6000 steps each day for the duration of the leg immobilization period, and recorded accelerometer readings each evening before bedtime. The brace was removed on Day 14, and participants resumed normal physical activity gradually from Days 16 to 29. After stopping study drug on Day 29, participants were to resume regular daily activity gradually for another 2 weeks. Consumption of prescribed medications or over the counter products was prohibited from 14 days prior to dosing and throughout the study, with the exception of the treatment of an adverse event. Participants were not to consume alcohol or caffeine containing food and beverages 3 days before each study visit and domicile periods. […]

Chain of FXR (Q96RI1 whole entry, species assumed): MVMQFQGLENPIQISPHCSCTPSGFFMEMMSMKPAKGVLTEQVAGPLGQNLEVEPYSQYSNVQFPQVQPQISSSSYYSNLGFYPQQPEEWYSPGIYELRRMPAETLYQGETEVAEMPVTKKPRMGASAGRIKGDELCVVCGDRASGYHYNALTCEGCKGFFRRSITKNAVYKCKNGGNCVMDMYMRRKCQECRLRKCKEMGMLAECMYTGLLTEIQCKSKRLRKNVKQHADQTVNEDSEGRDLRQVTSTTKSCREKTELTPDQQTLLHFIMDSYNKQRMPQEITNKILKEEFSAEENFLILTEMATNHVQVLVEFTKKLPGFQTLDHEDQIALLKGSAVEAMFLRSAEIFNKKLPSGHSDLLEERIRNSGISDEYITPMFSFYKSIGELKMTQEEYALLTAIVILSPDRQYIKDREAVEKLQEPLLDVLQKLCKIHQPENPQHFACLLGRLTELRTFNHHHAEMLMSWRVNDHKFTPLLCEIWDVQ
Chain of LXRα (Q13133 whole entry): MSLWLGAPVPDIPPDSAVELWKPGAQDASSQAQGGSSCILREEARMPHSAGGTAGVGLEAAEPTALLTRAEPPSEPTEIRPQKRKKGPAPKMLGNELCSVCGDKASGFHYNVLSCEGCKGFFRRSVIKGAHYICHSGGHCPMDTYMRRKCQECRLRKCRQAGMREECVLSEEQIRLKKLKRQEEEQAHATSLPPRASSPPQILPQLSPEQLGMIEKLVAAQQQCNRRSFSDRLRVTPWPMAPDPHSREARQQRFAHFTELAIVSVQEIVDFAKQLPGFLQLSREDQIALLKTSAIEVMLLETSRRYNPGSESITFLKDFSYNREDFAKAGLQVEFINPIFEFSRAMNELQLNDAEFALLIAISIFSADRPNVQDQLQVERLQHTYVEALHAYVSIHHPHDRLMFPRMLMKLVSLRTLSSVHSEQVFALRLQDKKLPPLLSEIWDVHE

On to `Cc1cc(OC/C=C(/c2ccc(F)cc2)c2ccc(C#CCN3CCOCC3)cc2)ccc1OCC(=O)O` [Compound I, (E)-2-(4-((3-(4-fluorophenyl)-3-(4-(3-morpholinoprop-1-yn-1-yl)phenyl)allyl)oxy)-2-methylphenoxy)acetic acid], for which, on FXR, the “activity on nuclear receptor FXR” value is on record as “did not show any”. In addition, the “activity on nuclear receptor LXRα” value at LXRα is given as “did not show any”. Besides, the fatty acid oxidation result in the assay with human muscle cell lines is reported as “dose-dependent increase”. Besides, the “expression patterns of PPARδ regulated genes (CPT1b, PGC-1α)” value in assay [1] was “altered the expression patterns”. The “expression of ANGPTL4” value in assay [2] is reported as “increased the expression”. In addition, the VLCAD enzymatic activity entry with VLCAD is reported as “increased”. In addition, the “expression of PPAR regulated target genes (ANGPTL4) and fatty acid metabolism genes (PDK4) in muscle biopsies” value in assay [3] was “significant increases”. Moreover, the “mean knee extension strength from baseline vs placebo” value in assay [3] (Day 21) is reported as “significant increase”.
